# Laboratory results published in PubChem BioAssay (NCI).
#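 Interpolation was linear, between the two tested concentrations surrounding the appropriate level; five concentrations were tested over 48 hours in 96-well plates. TGI is the concentration that stops growth completely.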
# Tests used:
# Assay in all cases: NCI tumour cell line growth inhibition, 48 h
# OVCAR-4 ovarian = system: OVCAR-4 ovarian
# A498 renal = system: A498 renal
# KM20L2 colon = system: KM20L2 colon
# KM12 colon = system: KM12 colon
# SF-295 CNS = system: SF-295 CNS
# SNB-19 CNS = system: SNB-19 CNS
# RPMI-8226 leukemia = system: RPMI-8226 leukemia
# SK-MEL-2 melanoma = system: SK-MEL-2 melanoma
# TK-10 renal = system: TK-10 renal
# SNB-75 CNS = system: SNB-75 CNS
# SN12C renal = system: SN12C renal
# SK-MEL-28 melanoma = system: SK-MEL-28 melanoma
# OVCAR-8 ovarian = system: OVCAR-8 ovarian
# NCI-H460 lung = system: NCI-H460 lung
# HOP-62 NSCLC = system: HOP-62 NSCLC
# M14 melanoma = system: M14 melanoma
# NCI-H522 lung = system: NCI-H522 lung
# COLO 205 colon = system: COLO 205 colon
# SF-539 CNS = system: SF-539 CNS
# HCT-116 colon = system: HCT-116 colon
# HL-60(TB) leukemia = system: HL-60(TB) leukemia
# SR leukemia = system: SR leukemia
# UACC-62 melanoma = system: UACC-62 melanoma
# NCI-H23 lung = system: NCI-H23 lung
# XF 498 CNS = system: XF 498 CNS
# HOP-92 NSCLC = system: HOP-92 NSCLC
# U251 CNS = system: U251 CNS
# MOLT-4 leukemia = system: MOLT-4 leukemia
# UO-31 renal = system: UO-31 renal
# EKVX NSCLC = system: EKVX NSCLC
# LOX IMVI melanoma = system: LOX IMVI melanoma
# SK-OV-3 ovarian = system: SK-OV-3 ovarian
# ACHN renal = system: ACHN renal
# CCRF-CEM leukemia = system: CCRF-CEM leukemia
# UACC-257 melanoma = system: UACC-257 melanoma
# DLD-1 colon = system: DLD-1 colon
# HCT-15 colon = system: HCT-15 colon
# 786-0 renal = system: 786-0 renal
# M19-MEL melanoma = system: M19-MEL melanoma
# OVCAR-3 ovarian = system: OVCAR-3 ovarian
# A549 NSCLC = system: A549 NSCLC
# SF-268 CNS = system: SF-268 CNS
# SW-620 colon = system: SW-620 colon
# DMS 273 small cell lung = system: DMS 273 small cell lung
# CAKI-1 renal = system: CAKI-1 renal
# SK-MEL-5 melanoma = system: SK-MEL-5 melanoma
# DMS 114 small cell lung = system: DMS 114 small cell lung
# SNB-78 CNS = system: SNB-78 CNS
# K-562 leukemia = system: K-562 leukemia
# HT29 colon = system: HT29 colon
# HCC-2998 colon = system: HCC-2998 colon
# MALME-3M melanoma = system: MALME-3M melanoma
# IGROV1 ovarian = system: IGROV1 ovarian
# LXFL 529 NSCLC = system: LXFL 529 NSCLC
# OVCAR-5 ovarian = system: OVCAR-5 ovarian
# HOP-18 NSCLC = system: HOP-18 NSCLC
# RXF 393 renal = system: RXF 393 renal
# NCI-H226 lung = system: NCI-H226 lung
compound,measurement,setting,value
OC1(C(Sc2ccccc2)Sc2ccccc2)CCCCCC1,TGI,OVCAR-4 ovarian,> 100 µM
same,TGI,A498 renal,85.2 µM
same,TGI,KM20L2 colon,9.27 µM
same,TGI,KM12 colon,> 100 µM
same,TGI,SF-295 CNS,66.2 µM
same,TGI,SNB-19 CNS,77.4 µM
same,TGI,RPMI-8226 leukemia,52.4 µM
same,TGI,SK-MEL-2 melanoma,41.2 µM
same,TGI,TK-10 renal,> 100 µM
same,TGI,SNB-75 CNS,> 100 µM
same,TGI,SN12C renal,38.5 µM
same,TGI,SK-MEL-28 melanoma,> 100 µM
same,TGI,OVCAR-8 ovarian,> 100 µM
same,TGI,NCI-H460 lung,75.5 µM
same,TGI,HOP-62 NSCLC,59.5 µM
same,TGI,M14 melanoma,49.2 µM
same,TGI,NCI-H522 lung,40.7 µM
same,TGI,COLO 205 colon,57.8 µM
same,TGI,SF-539 CNS,64.9 µM
same,TGI,HCT-116 colon,72.3 µM
same,TGI,HL-60(TB) leukemia,50.8 µM
same,TGI,SR leukemia,67 µM
same,TGI,UACC-62 melanoma,28.5 µM
same,TGI,NCI-H23 lung,> 100 µM
same,TGI,XF 498 CNS,35.7 µM
same,TGI,HOP-92 NSCLC,56.5 µM
same,TGI,U251 CNS,66.2 µM
same,TGI,MOLT-4 leukemia,> 100 µM
same,TGI,UO-31 renal,16.6 µM
same,TGI,EKVX NSCLC,63.5 µM
same,TGI,LOX IMVI melanoma,40 µM
same,TGI,SK-OV-3 ovarian,53.5 µM
same,TGI,ACHN renal,64.5 µM
same,TGI,CCRF-CEM leukemia,77.3 µM
same,TGI,UACC-257 melanoma,69.4 µM
same,TGI,DLD-1 colon,> 100 µM
same,TGI,HCT-15 colon,60.5 µM
same,TGI,786-0 renal,64.9 µM
same,TGI,M19-MEL melanoma,> 100 µM
same,TGI,OVCAR-3 ovarian,45.7 µM
same,TGI,A549 NSCLC,89.5 µM
same,TGI,SF-268 CNS,> 100 µM
same,TGI,SW-620 colon,> 100 µM
same,TGI,DMS 273 small cell lung,76.5 µM
same,TGI,CAKI-1 renal,74.9 µM
same,TGI,SK-MEL-5 melanoma,29.6 µM
same,TGI,DMS 114 small cell lung,68.9 µM
same,TGI,SNB-78 CNS,> 100 µM
C[C@@H](NC1CCCC[C@@H]1O)c1ccccc1 (some centres undefined),TGI,K-562 leukemia,> 100 µM
same,TGI,OVCAR-4 ovarian,> 100 µM
same,TGI,HT29 colon,> 100 µM
same,TGI,HCC-2998 colon,> 100 µM
same,TGI,KM20L2 colon,> 100 µM
same,TGI,KM12 colon,> 100 µM
same,TGI,SF-295 CNS,> 100 µM
same,TGI,SNB-19 CNS,> 100 µM
same,TGI,MALME-3M melanoma,> 100 µM
same,TGI,RPMI-8226 leukemia,> 100 µM
same,TGI,SK-MEL-2 melanoma,> 100 µM
same,TGI,TK-10 renal,> 100 µM
same,TGI,IGROV1 ovarian,> 100 µM
same,TGI,SNB-75 CNS,> 100 µM
same,TGI,SN12C renal,> 100 µM
same,TGI,SK-MEL-28 melanoma,> 100 µM
same,TGI,OVCAR-8 ovarian,> 100 µM
same,TGI,NCI-H460 lung,> 100 µM
same,TGI,HOP-62 NSCLC,> 100 µM
same,TGI,M14 melanoma,> 100 µM
same,TGI,COLO 205 colon,> 100 µM
same,TGI,HCT-116 colon,> 100 µM
same,TGI,HL-60(TB) leukemia,> 100 µM
same,TGI,UACC-62 melanoma,> 100 µM
same,TGI,LXFL 529 NSCLC,> 100 µM
same,TGI,XF 498 CNS,> 100 µM
same,TGI,HOP-92 NSCLC,> 100 µM
same,TGI,U251 CNS,> 100 µM
same,TGI,MOLT-4 leukemia,> 100 µM
same,TGI,OVCAR-5 ovarian,> 100 µM
same,TGI,UO-31 renal,> 100 µM
same,TGI,EKVX NSCLC,> 100 µM
same,TGI,LOX IMVI melanoma,> 100 µM
same,TGI,SK-OV-3 ovarian,> 100 µM
same,TGI,ACHN renal,> 100 µM
same,TGI,CCRF-CEM leukemia,> 100 µM
same,TGI,UACC-257 melanoma,> 100 µM
same,TGI,DLD-1 colon,> 100 µM
same,TGI,HCT-15 colon,> 100 µM
same,TGI,786-0 renal,> 100 µM
same,TGI,HOP-18 NSCLC,> 100 µM
same,TGI,M19-MEL melanoma,> 100 µM
same,TGI,RXF 393 renal,> 100 µM
same,TGI,OVCAR-3 ovarian,> 100 µM
same,TGI,A549 NSCLC,> 100 µM
same,TGI,NCI-H226 lung,> 100 µM
same,TGI,SW-620 colon,> 100 µM
same,TGI,DMS 273 small cell lung,> 100 µM
same,TGI,CAKI-1 renal,> 100 µM
same,TGI,SK-MEL-5 melanoma,> 100 µM
same,TGI,SNB-78 CNS,> 100 µM
O=C(O)C1=Cc2cccc3cccc(c23)C1=O,TGI,K-562 leukemia,> 100 µM
same,TGI,OVCAR-4 ovarian,> 100 µM
same,TGI,A498 renal,73.5 µM
same,TGI,HT29 colon,> 100 µM
same,TGI,HCC-2998 colon,> 100 µM
same,TGI,KM20L2 colon,> 100 µM
same,TGI,KM12 colon,> 100 µM
same,TGI,SF-295 CNS,> 100 µM
same,TGI,SNB-19 CNS,> 100 µM
same,TGI,MALME-3M melanoma,> 100 µM
same,TGI,RPMI-8226 leukemia,> 100 µM
same,TGI,SK-MEL-2 melanoma,> 100 µM
same,TGI,TK-10 renal,> 100 µM
same,TGI,IGROV1 ovarian,> 100 µM
same,TGI,SNB-75 CNS,> 100 µM
same,TGI,SN12C renal,> 100 µM
same,TGI,SK-MEL-28 melanoma,> 100 µM
same,TGI,OVCAR-8 ovarian,> 100 µM
same,TGI,NCI-H460 lung,> 100 µM
same,TGI,HOP-62 NSCLC,> 100 µM
same,TGI,M14 melanoma,> 100 µM
same,TGI,NCI-H522 lung,> 100 µM
same,TGI,COLO 205 colon,> 100 µM
same,TGI,HCT-116 colon,> 100 µM
same,TGI,HL-60(TB) leukemia,> 100 µM
same,TGI,SR leukemia,> 100 µM
same,TGI,UACC-62 melanoma,> 100 µM
same,TGI,NCI-H23 lung,> 100 µM
same,TGI,LXFL 529 NSCLC,> 100 µM
same,TGI,U251 CNS,> 100 µM
same,TGI,MOLT-4 leukemia,> 100 µM
same,TGI,OVCAR-5 ovarian,> 100 µM
same,TGI,UO-31 renal,> 100 µM
same,TGI,EKVX NSCLC,> 100 µM
same,TGI,LOX IMVI melanoma,> 100 µM
same,TGI,SK-OV-3 ovarian,> 100 µM
same,TGI,ACHN renal,> 100 µM
same,TGI,CCRF-CEM leukemia,> 100 µM
same,TGI,UACC-257 melanoma,> 100 µM
same,TGI,DLD-1 colon,> 100 µM
same,TGI,HCT-15 colon,> 100 µM
same,TGI,786-0 renal,> 100 µM
same,TGI,HOP-18 NSCLC,> 100 µM
same,TGI,M19-MEL melanoma,> 100 µM
same,TGI,RXF 393 renal,> 100 µM
same,TGI,OVCAR-3 ovarian,> 100 µM
same,TGI,A549 NSCLC,> 100 µM
same,TGI,NCI-H226 lung,> 100 µM
same,TGI,SF-268 CNS,> 100 µM
same,TGI,SW-620 colon,> 100 µM
same,TGI,DMS 273 small cell lung,> 100 µM
same,TGI,CAKI-1 renal,> 100 µM
same,TGI,SK-MEL-5 melanoma,> 100 µM
same,TGI,DMS 114 small cell lung,> 100 µM
O=C1c2cc3c(cc2[C@@H]2C(O)[C@H]4O[C@H]4C4CCN1C42)OCO3 (some centres undefined),TGI,K-562 leukemia,> 37.5 µM
same,TGI,OVCAR-4 ovarian,> 37.5 µM
same,TGI,HT29 colon,> 37.5 µM
same,TGI,HCC-2998 colon,> 37.5 µM
same,TGI,KM20L2 colon,> 37.5 µM
same,TGI,KM12 colon,> 37.5 µM
same,TGI,SF-295 CNS,> 37.5 µM
same,TGI,SNB-19 CNS,> 37.5 µM
same,TGI,MALME-3M melanoma,> 37.5 µM
same,TGI,RPMI-8226 leukemia,> 37.5 µM
same,TGI,SK-MEL-2 melanoma,> 37.5 µM
same,TGI,TK-10 renal,> 37.5 µM
same,TGI,IGROV1 ovarian,> 37.5 µM
same,TGI,SN12C renal,> 37.5 µM
same,TGI,SK-MEL-28 melanoma,> 37.5 µM
same,TGI,OVCAR-8 ovarian,> 37.5 µM
same,TGI,NCI-H460 lung,> 37.5 µM
same,TGI,HOP-62 NSCLC,> 37.5 µM
same,TGI,M14 melanoma,> 37.5 µM
same,TGI,NCI-H522 lung,> 37.5 µM
same,TGI,COLO 205 colon,> 37.5 µM
same,TGI,SF-539 CNS,> 37.5 µM
same,TGI,HCT-116 colon,> 37.5 µM
same,TGI,HL-60(TB) leukemia,> 37.5 µM
same,TGI,SR leukemia,> 37.5 µM
same,TGI,UACC-62 melanoma,> 37.5 µM
same,TGI,LXFL 529 NSCLC,> 37.5 µM
same,TGI,XF 498 CNS,> 37.5 µM
same,TGI,HOP-92 NSCLC,> 37.5 µM
same,TGI,MOLT-4 leukemia,> 37.5 µM
same,TGI,OVCAR-5 ovarian,> 37.5 µM
same,TGI,UO-31 renal,> 37.5 µM
same,TGI,EKVX NSCLC,> 37.5 µM
same,TGI,LOX IMVI melanoma,> 37.5 µM
same,TGI,SK-OV-3 ovarian,> 37.5 µM
same,TGI,ACHN renal,> 37.5 µM
same,TGI,CCRF-CEM leukemia,> 37.5 µM
same,TGI,HCT-15 colon,> 37.5 µM
same,TGI,OVCAR-3 ovarian,> 37.5 µM
same,TGI,A549 NSCLC,> 37.5 µM
same,TGI,NCI-H226 lung,> 37.5 µM
same,TGI,SF-268 CNS,> 37.5 µM
same,TGI,SW-620 colon,> 37.5 µM
same,TGI,DMS 273 small cell lung,> 37.5 µM
same,TGI,CAKI-1 renal,> 37.5 µM
same,TGI,DMS 114 small cell lung,> 37.5 µM
